Measured values from US10765674B2, “Prevention of HIV-infection” (Janssen Sciences Ireland Unlimited Company, priority 2005, dated 2020).

Assay: Tissue concentrations of TMC278 in beagle dog (biopsy on day 232) after single intramuscular administration
Assay type: in vivo, beagle dogs
Conditions: dog No. 16924, day 232 after single IM 2.5 mg/kg, aqueous 30% DMA/50% PEG400 solution; for concentration at 232 day: male, beagle, intramuscular
Description: On day 232 post-dose, a biopsy was performed (dog No. 16924 only) on the iliac lymph node (at the side of injection), on a muscle from the non-injected hind leg and on a muscle at the side of injection after ultrasonographic examination. All tissue samples were protected from light as much as possible and stored on melting ice. All samples were protected from light and stored at ≤−18° C. Finally, an additional blood sample was collected on day 272. This sample was processed and analysed similarly to the other blood samples. The concentration of TMC278 in dog tissue samples was also determined by a qualified research LC-MS/MS method. Tissues samples were homogenized with a 10-fold dilution in Milli-Q water by means of an Ultra-Turrax. The tissue homogenates (200 μl aliquot) were extracted by adding of 600 μl methanol (containing […]). After vortexing and centrifugation, the supernatant was transferred to an HPLC vial and 20 μl aliquots were injected. The LC and the MS conditions were the same as described above. The lower limit of quantification was 10.0 ng/g tissue. Samples were protected from light during the bioanalytical analysis.

[1] = muscle at the side of injection
[2] = muscle from the non-injected hind leg

Cc1cc(C=CC#N)cc(C)c1Nc1ccnc(Nc2ccc(C#N)cc2)n1 [TMC278, 4-[[4-[[4-(2-cyanoethenyl)-2,6-dimethylphenyl]amino]-2-pyrimidinyl]-amino]benzonitrile]
concentration at 232 day (iliac lymph node at the side of injection): 72.6 ng/g | concentration at 232 day [1]: < 10 ng/g | concentration at 232 day [2]: < 10 ng/g | tissue concentration [1]: <10.0 ng/g | tissue concentration [2]: <10.0 ng/g
